For orientation: inhibition means how much of the control response was suppressed. In general, Ki refers to the dissociation constant of the complex between target and ligand, obtained from inhibition or displacement.

What all share (test): Radioligand binding assay (NIMH PDSP)
Test [1] addresses 5-HT2B (Homo sapiens, UniProt P41595). Here is the method:
(§1) Compound EU93-108 was also tested for inhibition of binding of probes to a range of GPCRs and other targets (Table 4 and Supporting Table S4). […] EU93-108 produced significant displacement of binding probes for the 5-HT2 receptors and α-1-adrenergic receptors, as well as D3, H1, and σ1 receptors. Concentration–response binding competition curves for these targets were used to determine Ki values (Table 4). Given that the brain concentration of EU93-108 achieved 30 min post i.p. injection is 18 μM (Figure 6), the doses that yield our desired antinociceptive effects may engage some of the receptors listed in Table 4.
(§2) Conventional competition and saturation radioligand binding assays were used to determine the affinities of reference standards and EU93-108. Experiments were carried out by the NIMH Psychoactive Drug Screening Program (PDSP) and were performed as previously described.[123]
(§3) The detailed experimental protocols for the radioligand assays are available on the NIMH PDSP website at https://pdsp.unc.edu/pdspweb/content/UNC-CH%20Protocol%20Book.pdf.
(§4) Receptor Mean % Receptor Mean % Receptor Mean %
(§5) Inhibition Inhibition Inhibition
(§6) Supplemental Table S4. Off-Target Actions of EU93-108: Primary GPCR Screen. Cloned human molecular targets were individually expressed and submitted to molecular target-based screening with initial screens performed at a final concentration of 10 µM in quadruplicate. Complete protocols for the assays have been previously published (Besnard J et al. 2012). Where inhibition greater than 50% was measured, secondary screens were performed wherein Ki values were calculated (see Table 4).

Test [2] deals with T1, 5-HT2C (Homo sapiens, UniProt P28335).
T1 sequence (P28335 33-458): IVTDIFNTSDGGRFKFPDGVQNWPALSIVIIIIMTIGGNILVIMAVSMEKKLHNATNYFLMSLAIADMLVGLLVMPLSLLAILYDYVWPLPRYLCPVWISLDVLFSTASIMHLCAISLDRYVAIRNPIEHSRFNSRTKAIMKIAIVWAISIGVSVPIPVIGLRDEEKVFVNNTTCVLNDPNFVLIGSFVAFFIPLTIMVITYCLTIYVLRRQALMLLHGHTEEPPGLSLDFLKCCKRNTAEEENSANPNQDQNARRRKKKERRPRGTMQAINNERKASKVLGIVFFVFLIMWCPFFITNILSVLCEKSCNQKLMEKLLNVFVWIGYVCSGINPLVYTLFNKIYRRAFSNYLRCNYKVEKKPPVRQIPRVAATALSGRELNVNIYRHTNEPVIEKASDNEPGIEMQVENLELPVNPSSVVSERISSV
Here is the method:
as §1, §2, §3, §4, §5, §6

Test [3] addresses T2, Alpha1A (α1A) (Homo sapiens, UniProt P35348).
T2 sequence (P35348 1-466): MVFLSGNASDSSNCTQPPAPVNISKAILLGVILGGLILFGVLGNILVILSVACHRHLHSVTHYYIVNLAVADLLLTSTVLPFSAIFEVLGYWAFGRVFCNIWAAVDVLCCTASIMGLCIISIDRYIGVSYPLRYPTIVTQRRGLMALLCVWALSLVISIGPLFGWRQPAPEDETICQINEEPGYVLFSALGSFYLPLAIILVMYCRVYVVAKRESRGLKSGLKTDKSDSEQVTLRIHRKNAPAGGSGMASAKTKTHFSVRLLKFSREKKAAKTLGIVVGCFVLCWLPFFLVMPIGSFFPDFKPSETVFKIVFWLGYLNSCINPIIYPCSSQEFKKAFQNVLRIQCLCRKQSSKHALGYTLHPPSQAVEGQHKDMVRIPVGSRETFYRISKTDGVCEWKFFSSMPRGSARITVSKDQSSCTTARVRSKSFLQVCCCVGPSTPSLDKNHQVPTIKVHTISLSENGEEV
Here is the method:
as §1, §2, §3, §4, §5, §6

The target in test [4] is 5-HT2A (Homo sapiens, UniProt P28223). Here is the method:
as §1, §2, §3, §4, §5, §6

Test [5] has as its target D3 (Homo sapiens, UniProt P35462). Here is the method:
as §1, §2, §3, §4, §5, §6

The target in test [6] is T3, Alpha2C (α2C) (Homo sapiens, UniProt P18825).
T3 sequence (P18825 1-462): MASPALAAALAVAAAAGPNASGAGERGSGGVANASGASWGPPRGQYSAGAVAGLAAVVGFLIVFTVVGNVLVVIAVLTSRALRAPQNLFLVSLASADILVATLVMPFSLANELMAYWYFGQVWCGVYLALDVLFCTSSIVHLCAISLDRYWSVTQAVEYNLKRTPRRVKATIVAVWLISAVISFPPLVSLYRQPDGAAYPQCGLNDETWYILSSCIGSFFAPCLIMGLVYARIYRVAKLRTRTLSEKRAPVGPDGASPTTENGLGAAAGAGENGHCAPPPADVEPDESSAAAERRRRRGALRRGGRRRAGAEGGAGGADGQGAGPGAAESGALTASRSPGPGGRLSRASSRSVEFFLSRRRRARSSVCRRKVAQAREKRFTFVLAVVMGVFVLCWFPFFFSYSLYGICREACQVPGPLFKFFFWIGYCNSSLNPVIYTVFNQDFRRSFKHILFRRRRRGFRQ
How it is done: as §1, §2, §3, §4, §5, §6

In test [7] the target is T4, Alpha2A (α2A) (Homo sapiens, UniProt P08913).
T4 sequence (P08913 1-465): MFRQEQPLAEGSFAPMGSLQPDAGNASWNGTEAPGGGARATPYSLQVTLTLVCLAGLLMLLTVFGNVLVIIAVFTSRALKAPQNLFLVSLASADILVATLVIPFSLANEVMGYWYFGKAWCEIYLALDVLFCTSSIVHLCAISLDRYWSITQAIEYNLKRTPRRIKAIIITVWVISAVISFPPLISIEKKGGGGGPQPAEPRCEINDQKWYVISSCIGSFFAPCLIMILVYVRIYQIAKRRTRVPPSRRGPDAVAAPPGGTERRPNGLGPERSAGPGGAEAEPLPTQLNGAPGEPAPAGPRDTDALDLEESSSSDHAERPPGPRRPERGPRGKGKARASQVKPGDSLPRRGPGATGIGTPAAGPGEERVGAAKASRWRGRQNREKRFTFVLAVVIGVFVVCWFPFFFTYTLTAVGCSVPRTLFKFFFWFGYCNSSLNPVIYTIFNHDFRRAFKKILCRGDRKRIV
Here is the method: as §1, §2, §3, §4, §5, §6

Setting [8] is: primary screen, 10 µM, quadruplicate.
[9] abbreviates: ratio of Ki to the IC50 for EU93-108 (555 nM) at GluN2B.
Where [10] appears, read: secondary screen, binding competition curve.

Chain of 5-HT2B (P41595 whole entry): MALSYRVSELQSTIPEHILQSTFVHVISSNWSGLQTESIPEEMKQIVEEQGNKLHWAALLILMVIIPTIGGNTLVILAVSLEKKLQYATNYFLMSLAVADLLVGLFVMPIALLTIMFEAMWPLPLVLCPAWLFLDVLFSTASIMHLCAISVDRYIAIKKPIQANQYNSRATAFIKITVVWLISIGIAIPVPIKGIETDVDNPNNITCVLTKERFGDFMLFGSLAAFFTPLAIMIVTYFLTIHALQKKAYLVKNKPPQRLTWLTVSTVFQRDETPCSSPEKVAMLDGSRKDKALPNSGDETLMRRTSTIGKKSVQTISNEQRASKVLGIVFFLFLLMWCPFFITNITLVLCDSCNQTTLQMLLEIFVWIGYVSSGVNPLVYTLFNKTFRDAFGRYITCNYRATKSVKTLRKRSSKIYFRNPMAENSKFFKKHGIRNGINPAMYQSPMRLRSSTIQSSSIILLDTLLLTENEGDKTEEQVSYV
Chain of 5-HT2A (P28223 whole entry): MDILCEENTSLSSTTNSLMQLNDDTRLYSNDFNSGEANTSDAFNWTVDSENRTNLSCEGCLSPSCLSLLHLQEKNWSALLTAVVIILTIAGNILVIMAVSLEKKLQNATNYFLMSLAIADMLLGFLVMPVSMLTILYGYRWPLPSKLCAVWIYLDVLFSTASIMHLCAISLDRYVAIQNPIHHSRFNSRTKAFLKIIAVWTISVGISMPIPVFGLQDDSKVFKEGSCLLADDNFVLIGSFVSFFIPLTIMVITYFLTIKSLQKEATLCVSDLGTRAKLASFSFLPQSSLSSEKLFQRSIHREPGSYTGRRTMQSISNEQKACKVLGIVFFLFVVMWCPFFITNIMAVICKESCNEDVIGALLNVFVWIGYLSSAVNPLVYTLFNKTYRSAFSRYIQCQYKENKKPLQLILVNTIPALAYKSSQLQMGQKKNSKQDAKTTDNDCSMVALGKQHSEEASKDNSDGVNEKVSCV
Chain of D3 (P35462 whole entry): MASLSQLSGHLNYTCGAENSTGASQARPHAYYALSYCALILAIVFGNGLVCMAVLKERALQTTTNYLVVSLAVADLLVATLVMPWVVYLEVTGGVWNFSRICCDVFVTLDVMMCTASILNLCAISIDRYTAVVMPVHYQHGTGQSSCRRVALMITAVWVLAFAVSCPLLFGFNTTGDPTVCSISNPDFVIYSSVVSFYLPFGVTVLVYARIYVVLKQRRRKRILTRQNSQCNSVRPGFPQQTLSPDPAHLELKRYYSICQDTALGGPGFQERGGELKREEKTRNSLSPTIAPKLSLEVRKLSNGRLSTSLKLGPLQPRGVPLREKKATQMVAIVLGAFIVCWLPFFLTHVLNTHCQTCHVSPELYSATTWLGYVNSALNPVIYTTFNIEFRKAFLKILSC

In the case of `CS(=O)(=O)Nc1ccc(OC[C@@H](O)CN2CCN(c3ccc(F)c(F)c3)CC2)cc1` [EU93-108, (S)-N-(4-(3-(4-(3,4-Difluorophenyl)piperazin-1-yl)-2-hydroxypropoxy)phenyl)methanesulfonamide], the inhibition at 10 µM in test [1] (setting [8]) is 67.4%; in test [2] (setting [8]), 71.3%; in test [3] (setting [8]), 86.3%; in test [4] (setting [8]), 83.8%; in test [5] (setting [8]), 67.1%; in test [6] (setting [8]), 63%. In test [7] (setting [8]), this compound registered an inhibition at 10 µM of 77.7%. For the same compound, the “Ki/IC50 of EU93-108” value in test [1] (setting [9]) was 1.75; in test [2] (setting [9]), 3.28; in test [3] (setting [9]), 0.31; in test [4] (setting [9]) it was 0.88; in test [5] (setting [9]), 0.34; in test [6] (setting [9]) it was 1.55. The “Ki/IC50 of EU93-108” value in test [7] (setting [9]) was 2.07. Also, the Ki in test [1] (setting [10]) was 976 nM; in test [2] (setting [10]), 1820 nM; in test [3] (setting [10]), 170 nM; in test [4] (setting [10]), 490 nM; in test [5] (setting [10]), 190 nM; in test [6] (setting [10]), 862 nM. In test [7] (setting [10]), this compound displayed a Ki of 1150 nM.

(Values after article PMC9983021, “Novel GluN2B-Selective NMDA Receptor Negative Allosteric Modulator Possesses Intrinsic Analgesic Properties and Enhances Analgesia of Morphine in a Rodent Tail Flick Pain Model” (ACS Chemical Neuroscience, 2023).)
